The values that follow come from patent US9833455B2, “Preparation and methods of use for ortho-aryl 5-membered heteroaryl-carboxamide containing multi-targeted kinase inhibitors” (Spacefill Enterprises LLC, priority 2011, dated 2017).

A word on the inhibition: it is the relative decrease from the control value, in per cent. Low values mean a weak effect, high ones a strong effect.

In one experiment the target is T1, BRAF (Homo sapiens, UniProt P15056).
T1 construct: literature Ambit Biosciences
In words: Nanosyn kinase profiling, % inhibition. The experiment is classed as biochemical. Particulars: panel of 230 kinases. Here is the method: (§1) “Inhibiting kinase activity” means to decrease the production of an phosphor-peptide by a particular kinase that can be separated by analytical techniques. For example, a comprehensive platform of kinase, protease, phosphatase and epigenetic assays that utilizes cutting-edge microfluidics and informatics tools to provide accurate and rapid results. Profiling data in this application were determined using these techniques at Nanosyn Inc. IC50 data were provided by Reaction Biology Inc using a P33 radiolabeled kinase assay.
(§2) A total of 15 new inhibitors were designed, prepared, and evaluated against a panel of 29 selected kinases in order to explore the applicability, SAR trends, and the tunability of this scaffold that could be imposed but this unique geometry, Table 21. Inhibitors I-1 to 1-12 all retained the 2-CF3-5-(4-F-phenyl) imidazole-4-carboxamide scaffold previously described (Deitrich, 2010), but explored different Hinge-Gatekeeper Motifs (HGM).
(§3) More modest activity for Aurora-A, FLT-1/4, KDR, KIT, PDGFRs was accompanied by better activity for B-Raf mutant and wild-type forms, Modest inhibition of MEK-1, BTK, c-Met, RET, and RON was also observed. […] Moreover, the observed inhibition of MEK-1 with 1-12 and TYK2 with I-6 represents additional activities against kinases for which no type-II inhibitors have been reported to date. […] To further evaluate the scope of inhibition, I-6 was evaluated against a larger panel of 230 kinases, Table-22.

For a further experiment, the target named is TYK2 (Homo sapiens, UniProt P29597). In words: Nanosyn kinase profiling, % inhibition. Type of experiment: biochemical. The following applies: panel of 230 kinases. The procedure:
as §1, §2, §3

The target of a further experiment is MET (Homo sapiens, UniProt P08581). The experiment in a line: Nanosyn kinase profiling, % inhibition. Type of experiment: biochemical. Particulars: panel of 230 kinases. Here is the method:
as §1, §2, §3

The target of the next experiment is KDR (Homo sapiens, UniProt P35968). The experiment in a line: Nanosyn kinase profiling, % inhibition. Type of experiment: biochemical. The following applies: panel of 230 kinases. Here is the method:
as §1, §2, §3

The target of a further experiment is PDGFR-α (Homo sapiens, UniProt P16234). In words: Nanosyn kinase profiling, % inhibition. Type of experiment: biochemical. The following applies: panel of 230 kinases. Here is the method:
as §1, §2, §3

In the next experiment the target is FLT4 (Homo sapiens, UniProt P35916). The experiment in a line: Nanosyn kinase profiling, % inhibition. The following applies: panel of 230 kinases. The experiment is classed as biochemical. The procedure:
as §1, §2, §3

In the next experiment the target is PDGFR-β (Homo sapiens, UniProt P09619). In words: Nanosyn kinase profiling, % inhibition. The experiment is classed as biochemical. The following applies: panel of 230 kinases. The procedure:
as §1, §2, §3

For the next experiment, the target named is FMS (Homo sapiens, UniProt P07333). In words: Nanosyn kinase profiling, % inhibition. Type of experiment: biochemical. Particulars: panel of 230 kinases. Here is the method:
as §1, §2, §3

The next experiment addresses EPHA2 (Homo sapiens, UniProt P29317). The experiment in a line: Nanosyn kinase profiling, % inhibition. The experiment is classed as biochemical. The following applies: panel of 230 kinases. Here is the method: as §1, §2, §3
The target in the next experiment is RON (Homo sapiens, UniProt Q04912). The experiment in a line: Nanosyn kinase profiling, % inhibition. Type of experiment: biochemical. The following applies: panel of 230 kinases. Here is the method: as §1, §2, §3
Another experiment deals with KIT (Homo sapiens, UniProt P10721). The experiment in a line: Nanosyn kinase profiling, % inhibition. Type of experiment: biochemical. The following applies: panel of 230 kinases. The procedure:
as §1, §2, §3

A further experiment deals with RET (Homo sapiens, UniProt P07949). In words: Nanosyn kinase profiling, % inhibition. The experiment is classed as biochemical. The following applies: panel of 230 kinases. The procedure: as §1, §2, §3
The target of the next experiment is TIE2 (Homo sapiens, UniProt Q02763). In words: Nanosyn kinase profiling, % inhibition. The experiment is classed as biochemical. The following applies: panel of 230 kinases. The procedure:
as §1, §2, §3

The target in a further experiment is HIPK3 (Homo sapiens, UniProt Q9H422). The experiment in a line: Nanosyn kinase profiling, % inhibition. The experiment is classed as biochemical. Particulars: panel of 230 kinases. Here is the method: as §1, §3
In a further experiment the target is HIPK4 (Homo sapiens, UniProt Q8NE63). In words: Nanosyn kinase profiling, % inhibition. The experiment is classed as biochemical. Particulars: panel of 230 kinases. The procedure:
as §1, §3

The target of a further experiment is YES (Homo sapiens, UniProt P07947). The experiment in a line: Nanosyn kinase profiling, % inhibition. Type of experiment: biochemical. The following applies: panel of 230 kinases. The procedure:
as §1, §3

In a further experiment the target is SIK (Homo sapiens, UniProt P57059). The experiment in a line: Nanosyn kinase profiling, % inhibition. The experiment is classed as biochemical. Particulars: panel of 230 kinases. The procedure:
as §1, §3

The next experiment concerns the target ARG (Homo sapiens, UniProt P42684). In words: Nanosyn kinase profiling, % inhibition. The experiment is classed as biochemical. The following applies: panel of 230 kinases. Here is the method:
as §1, §3

Another experiment deals with JAK2 (Homo sapiens, UniProt O60674). The experiment in a line: Nanosyn kinase profiling, % inhibition. The experiment is classed as biochemical. The following applies: panel of 230 kinases. The procedure: as §1, §3
The target in another experiment is TRKC (Homo sapiens, UniProt Q16288). In words: Nanosyn kinase profiling, % inhibition. The experiment is classed as biochemical. Particulars: panel of 230 kinases. The procedure:
as §1, §3

The target in another experiment is EPH-B2 (Homo sapiens, UniProt P29323). The experiment in a line: Nanosyn kinase profiling, % inhibition. The experiment is classed as biochemical. Particulars: panel of 230 kinases. Here is the method:
as §1, §3

For a further experiment, the target named is PRKD3 (Homo sapiens, UniProt O94806). The experiment in a line: Nanosyn kinase profiling, % inhibition. The following applies: panel of 230 kinases. Type of experiment: biochemical. Here is the method: as §1, §3
A further experiment has as its target MUSK (Homo sapiens, UniProt O15146). In words: Nanosyn kinase profiling, % inhibition. The experiment is classed as biochemical. The following applies: panel of 230 kinases. The procedure:
as §1, §3

Another experiment has as its target TYRO3 (Homo sapiens, UniProt Q06418). In words: Nanosyn kinase profiling, % inhibition. Type of experiment: biochemical. Particulars: panel of 230 kinases. Here is the method: as §1, §3
The next experiment has as its target ABL1 (Homo sapiens, UniProt P00519). The experiment in a line: Nanosyn kinase profiling, % inhibition. The experiment is classed as biochemical. The following applies: panel of 230 kinases. Here is the method: as §1, §3
The target of another experiment is MEK2 (Homo sapiens, UniProt P36507). The experiment in a line: Nanosyn kinase profiling, % inhibition. Particulars: panel of 230 kinases. The experiment is classed as biochemical. The procedure:
as §1, §3

Another experiment concerns the target EPH-A4 (Homo sapiens, UniProt P54764). In words: Nanosyn kinase profiling, % inhibition. The experiment is classed as biochemical. The following applies: panel of 230 kinases. The procedure: as §1, §3
The next experiment has as its target MNK2 (Homo sapiens, UniProt Q9HBH9). In words: Nanosyn kinase profiling, % inhibition. Type of experiment: biochemical. The following applies: panel of 230 kinases. Here is the method: as §1, §3
The next experiment addresses EPH-A1 (Homo sapiens, UniProt P21709). The experiment in a line: Nanosyn kinase profiling, % inhibition. Type of experiment: biochemical. The following applies: panel of 230 kinases. The procedure: as §1, §3
The next experiment concerns the target LCK (Homo sapiens, UniProt P06239). The experiment in a line: Nanosyn kinase profiling, % inhibition. Type of experiment: biochemical. The following applies: panel of 230 kinases. The procedure: as §1, §3
Another experiment has as its target T2, CSF1R (Homo sapiens, UniProt P07333).
T2 construct: literature Ambit Biosciences
Particulars: 1 μM, duplicate, without preincubation; cited from earlier work.

Sequence of HIPK3 (Q9H422 whole entry): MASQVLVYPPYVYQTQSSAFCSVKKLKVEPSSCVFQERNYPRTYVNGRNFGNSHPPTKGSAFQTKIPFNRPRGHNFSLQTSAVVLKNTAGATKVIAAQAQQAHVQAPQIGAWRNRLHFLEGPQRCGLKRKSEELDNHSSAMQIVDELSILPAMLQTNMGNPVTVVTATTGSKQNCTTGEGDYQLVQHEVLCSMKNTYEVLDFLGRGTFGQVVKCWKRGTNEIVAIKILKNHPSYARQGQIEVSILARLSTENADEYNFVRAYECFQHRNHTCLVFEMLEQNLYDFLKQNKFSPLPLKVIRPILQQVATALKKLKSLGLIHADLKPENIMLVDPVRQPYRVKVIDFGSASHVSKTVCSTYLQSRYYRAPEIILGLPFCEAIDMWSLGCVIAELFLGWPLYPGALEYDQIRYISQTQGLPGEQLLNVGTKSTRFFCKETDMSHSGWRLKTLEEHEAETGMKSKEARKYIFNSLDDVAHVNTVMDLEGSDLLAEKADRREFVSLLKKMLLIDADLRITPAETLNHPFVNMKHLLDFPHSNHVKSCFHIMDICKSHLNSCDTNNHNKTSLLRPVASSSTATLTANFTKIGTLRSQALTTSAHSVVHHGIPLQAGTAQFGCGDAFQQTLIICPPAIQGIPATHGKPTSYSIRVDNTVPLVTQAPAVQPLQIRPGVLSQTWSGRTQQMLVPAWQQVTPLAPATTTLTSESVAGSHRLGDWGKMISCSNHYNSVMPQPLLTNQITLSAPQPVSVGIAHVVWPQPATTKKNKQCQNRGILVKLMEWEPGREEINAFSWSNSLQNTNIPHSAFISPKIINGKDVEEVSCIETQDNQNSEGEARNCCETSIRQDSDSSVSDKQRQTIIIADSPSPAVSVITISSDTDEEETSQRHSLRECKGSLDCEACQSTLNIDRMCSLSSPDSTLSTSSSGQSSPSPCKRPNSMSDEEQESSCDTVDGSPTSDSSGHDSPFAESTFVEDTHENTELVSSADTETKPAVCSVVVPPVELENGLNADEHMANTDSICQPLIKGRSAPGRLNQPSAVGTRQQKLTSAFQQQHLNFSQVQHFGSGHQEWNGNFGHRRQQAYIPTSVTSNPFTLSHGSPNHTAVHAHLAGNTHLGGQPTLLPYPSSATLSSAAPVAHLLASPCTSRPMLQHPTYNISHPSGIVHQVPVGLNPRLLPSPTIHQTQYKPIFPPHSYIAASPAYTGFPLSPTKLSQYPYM
Sequence of HIPK4 (Q8NE63 whole entry): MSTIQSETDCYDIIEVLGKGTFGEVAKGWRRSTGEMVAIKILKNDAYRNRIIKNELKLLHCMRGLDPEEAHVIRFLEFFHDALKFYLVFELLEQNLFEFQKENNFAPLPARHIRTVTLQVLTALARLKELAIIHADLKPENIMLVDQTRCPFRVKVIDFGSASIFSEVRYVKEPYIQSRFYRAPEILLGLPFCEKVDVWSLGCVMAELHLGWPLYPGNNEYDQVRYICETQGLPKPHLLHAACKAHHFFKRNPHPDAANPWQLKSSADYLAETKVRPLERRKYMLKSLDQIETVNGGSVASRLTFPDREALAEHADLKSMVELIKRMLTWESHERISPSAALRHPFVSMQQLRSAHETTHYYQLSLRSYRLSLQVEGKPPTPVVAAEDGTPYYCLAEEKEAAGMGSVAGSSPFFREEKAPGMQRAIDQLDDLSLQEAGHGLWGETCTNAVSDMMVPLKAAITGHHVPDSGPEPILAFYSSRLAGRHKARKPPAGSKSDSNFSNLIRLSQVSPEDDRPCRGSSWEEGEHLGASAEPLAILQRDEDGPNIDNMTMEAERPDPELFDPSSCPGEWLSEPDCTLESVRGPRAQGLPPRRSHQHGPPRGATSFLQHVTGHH
Sequence of EPHA2 (P29317 24-976): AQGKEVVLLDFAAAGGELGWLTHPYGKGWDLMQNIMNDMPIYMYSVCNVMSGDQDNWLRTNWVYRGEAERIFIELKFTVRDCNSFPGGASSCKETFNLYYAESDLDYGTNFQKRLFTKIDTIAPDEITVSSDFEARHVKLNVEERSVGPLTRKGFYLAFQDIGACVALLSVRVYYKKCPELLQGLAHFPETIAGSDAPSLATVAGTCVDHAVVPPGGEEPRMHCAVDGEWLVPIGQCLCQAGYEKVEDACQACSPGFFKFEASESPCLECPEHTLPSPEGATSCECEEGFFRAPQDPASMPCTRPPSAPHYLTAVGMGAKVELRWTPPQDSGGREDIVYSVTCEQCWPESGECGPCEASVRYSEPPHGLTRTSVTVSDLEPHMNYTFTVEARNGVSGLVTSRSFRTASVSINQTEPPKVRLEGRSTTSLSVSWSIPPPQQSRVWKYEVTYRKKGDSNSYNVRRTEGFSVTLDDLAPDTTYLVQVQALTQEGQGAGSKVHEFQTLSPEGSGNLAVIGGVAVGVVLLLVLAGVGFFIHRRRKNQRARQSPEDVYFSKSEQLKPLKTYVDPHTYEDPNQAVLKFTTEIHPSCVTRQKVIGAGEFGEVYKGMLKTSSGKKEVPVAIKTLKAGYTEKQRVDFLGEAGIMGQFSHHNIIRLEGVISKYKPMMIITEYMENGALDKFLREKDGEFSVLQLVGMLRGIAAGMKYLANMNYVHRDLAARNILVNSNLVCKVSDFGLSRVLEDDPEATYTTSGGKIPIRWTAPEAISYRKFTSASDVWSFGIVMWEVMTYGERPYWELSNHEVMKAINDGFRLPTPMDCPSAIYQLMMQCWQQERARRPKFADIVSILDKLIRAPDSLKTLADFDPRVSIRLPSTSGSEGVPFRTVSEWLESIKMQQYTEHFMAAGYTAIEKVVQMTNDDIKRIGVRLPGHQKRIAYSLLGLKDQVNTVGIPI
T1 sequence (P15056 whole entry): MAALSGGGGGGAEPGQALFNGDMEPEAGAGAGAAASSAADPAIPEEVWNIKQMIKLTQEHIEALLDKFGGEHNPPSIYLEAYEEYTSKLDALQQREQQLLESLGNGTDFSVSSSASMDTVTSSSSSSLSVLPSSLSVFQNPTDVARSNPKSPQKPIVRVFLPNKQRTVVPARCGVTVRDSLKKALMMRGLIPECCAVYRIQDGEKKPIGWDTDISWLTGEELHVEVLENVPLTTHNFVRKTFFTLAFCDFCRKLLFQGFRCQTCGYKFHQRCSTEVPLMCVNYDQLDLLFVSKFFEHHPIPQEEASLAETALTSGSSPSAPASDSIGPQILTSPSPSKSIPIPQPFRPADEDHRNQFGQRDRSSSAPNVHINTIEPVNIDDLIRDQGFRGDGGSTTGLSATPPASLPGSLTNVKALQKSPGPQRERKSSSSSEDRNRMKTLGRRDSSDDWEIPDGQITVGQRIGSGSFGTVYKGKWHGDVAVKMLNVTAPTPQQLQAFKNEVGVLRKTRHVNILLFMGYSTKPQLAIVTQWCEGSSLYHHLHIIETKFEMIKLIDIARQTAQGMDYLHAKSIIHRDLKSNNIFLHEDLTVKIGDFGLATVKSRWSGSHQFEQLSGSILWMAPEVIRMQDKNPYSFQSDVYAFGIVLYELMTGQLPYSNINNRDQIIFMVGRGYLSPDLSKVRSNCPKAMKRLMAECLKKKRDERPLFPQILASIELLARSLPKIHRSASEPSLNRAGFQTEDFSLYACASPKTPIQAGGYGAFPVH
Sequence of LCK (P06239 whole entry): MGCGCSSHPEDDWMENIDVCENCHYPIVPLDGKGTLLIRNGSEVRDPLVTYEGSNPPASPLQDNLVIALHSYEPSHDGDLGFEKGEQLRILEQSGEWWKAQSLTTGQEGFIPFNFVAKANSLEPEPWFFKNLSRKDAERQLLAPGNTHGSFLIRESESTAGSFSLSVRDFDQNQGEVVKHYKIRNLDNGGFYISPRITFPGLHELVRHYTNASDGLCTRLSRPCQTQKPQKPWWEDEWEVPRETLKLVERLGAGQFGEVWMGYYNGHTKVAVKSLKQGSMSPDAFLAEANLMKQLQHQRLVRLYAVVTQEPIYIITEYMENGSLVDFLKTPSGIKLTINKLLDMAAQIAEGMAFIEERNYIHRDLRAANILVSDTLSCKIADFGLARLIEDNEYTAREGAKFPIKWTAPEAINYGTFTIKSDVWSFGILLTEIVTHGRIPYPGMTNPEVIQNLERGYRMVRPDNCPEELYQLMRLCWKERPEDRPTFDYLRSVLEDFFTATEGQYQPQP
Sequence of SIK (P57059 whole entry): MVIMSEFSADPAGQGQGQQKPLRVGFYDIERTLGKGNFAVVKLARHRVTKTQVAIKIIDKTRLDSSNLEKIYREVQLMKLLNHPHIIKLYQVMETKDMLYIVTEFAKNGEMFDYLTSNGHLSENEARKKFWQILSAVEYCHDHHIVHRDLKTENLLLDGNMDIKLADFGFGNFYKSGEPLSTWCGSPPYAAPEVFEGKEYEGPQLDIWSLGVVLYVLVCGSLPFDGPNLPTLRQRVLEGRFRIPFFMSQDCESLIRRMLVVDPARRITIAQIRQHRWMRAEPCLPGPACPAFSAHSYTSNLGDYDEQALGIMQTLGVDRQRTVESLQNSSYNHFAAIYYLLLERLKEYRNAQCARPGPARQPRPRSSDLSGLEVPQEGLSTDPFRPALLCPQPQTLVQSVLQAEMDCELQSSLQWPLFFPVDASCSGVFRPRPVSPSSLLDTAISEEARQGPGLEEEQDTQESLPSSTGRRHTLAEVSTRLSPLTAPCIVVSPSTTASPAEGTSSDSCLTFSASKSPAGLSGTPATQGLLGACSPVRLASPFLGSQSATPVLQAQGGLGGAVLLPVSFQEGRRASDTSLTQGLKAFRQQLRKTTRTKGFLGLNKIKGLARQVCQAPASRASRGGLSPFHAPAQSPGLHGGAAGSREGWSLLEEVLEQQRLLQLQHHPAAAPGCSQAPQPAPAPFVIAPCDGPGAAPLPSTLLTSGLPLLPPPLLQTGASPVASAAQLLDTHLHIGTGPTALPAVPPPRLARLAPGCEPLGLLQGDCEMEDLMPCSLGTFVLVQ

On to `CNC(=O)c1cc(Oc2ccc(NC(=O)c3nc(C(F)(F)F)[nH]c3-c3ccc(F)cc3)cc2)ccn1` [Inhibitor I-6, 4-(4-{[5-(4-Fluoro-phenyl)-2-trifluoromethyl-3H-imidazole-4-carbonyl]-amino}-phenoxy)-pyridine-2-carboxylic acid methylamide], for which the inhibition at 5 µM against BRAF, against TYK2, against MET, against KDR, against PDGFR-α and at FLT4 was at least 50% each time. In addition, the inhibition at 5 µM against PDGFR-β, against FMS, at EPHA2, against RON, on KIT and at RET was at least 50% in each case. Moreover, the inhibition at 5 µM on TIE2, against HIPK3, at HIPK4, at YES, against SIK and against ARG was at least 50% in each case. For the same compound, the inhibition at 5 µM against JAK2, against TRKC, against EPH-B2, at PRKD3, against MUSK and against TYRO3 was at least 50% each time. Further, the inhibition at 5 µM on ABL1, at MEK2, at EPH-A4, on MNK2, on EPH-A1 and against LCK was at least 50% in each case.
`Cc1ccc(NC(=O)c2[nH]c(C(F)(F)F)nc2-c2ccc(F)cc2)cc1Nc1ccc2ncn(C)c(=O)c2c1` [KIN-035]: the “inhibition of CSF1R” value on CSF1R is reported as “XXX (XXX > 75% @ 1 μM)”.
